From ChEMBL document CHEMBL4699529, “Anti-Inflammatory ent-Kaurane Diterpenoids from Isodon serra” (J Nat Prod, 2020)

How the values were obtained:
[1] = Inhibition of LPS-induced NO production in mouse BV-2 cells; format: functional, cell-based
[2] = tested on: BV-2; assay: Cytotoxicity against mouse BV-2 cells; format: cell-based

SMILES	IC50 [1]	Activity [2]
CC(=O)O[C@@H]1[C@@](O)(CO)[C@@H]2CC[C@H]3[C@]45CCCC(C)(C)[C@H]4[C@H](OC(C)=O)[C@@](O)(OC5)[C@]13C2	40.1 µM	Non-Toxic
C=C1[C@@H]2CC[C@H]3[C@]4(C)CCCC(C)(C)[C@H]4[C@H](OC(C)=O)C(=O)[C@]3(C2)[C@@H]1OC(C)=O	7.3 µM	Non-Toxic
C=C1[C@@H]2CC[C@H]3[C@]45CCCC(C)(C)[C@H]4[C@H](OC(C)=O)[C@@](O)(OC5)[C@]3(C2)[C@@H]1OC(C)=O	26.2 µM	Non-Toxic
CSC(=N)N	3.6 µM	Non-Toxic
C=C1[C@@H]2CC[C@H]3[C@]45CCCC(C)(C)[C@H]4[C@H](O)[C@@](O)(OC5)[C@]3(C2)[C@@H]1O	> 60 µM	Non-Toxic
CC(=O)O[C@@H]1[C@@]2(CO2)[C@@H]2CC[C@H]3[C@]45CCCC(C)(C)[C@H]4[C@H](OC(C)=O)[C@@](O)(OC5)[C@]13[C@@H]2O	> 100 µM	Non-Toxic
C=C1[C@@H](OC(C)=O)[C@]23[C@H](O)[C@H]1CC[C@H]2[C@@]12CO[C@]3(O)[C@@H](O)[C@@H]1C(C)(C)CC[C@@H]2OC(C)=O	> 100 µM	Non-Toxic
CC(=O)O[C@@H]1[C@@]2(CO2)[C@@H]2CC[C@H]3[C@]45CCCC(C)(C)[C@H]4[C@H](OC(C)=O)[C@@](O)(OC5)[C@]13C2	> 100 µM	Non-Toxic
CC(=O)O[C@H]1[C@]2(CO2)[C@@H]2CC[C@H]3[C@]45CCCC(C)(C)[C@H]4[C@H](OC(C)=O)[C@@](O)(OC5)[C@@]31C2	15.6 µM	Non-Toxic
CC(=O)O[C@H]1[C@](O)(CO)[C@@H]2CC[C@H]3[C@]45CCCC(C)(C)[C@H]4[C@H](OC(C)=O)[C@@](O)(OC5)[C@]13C2	44.1 µM	Non-Toxic
CC(=O)O[C@H]1CCC(C)(C)[C@@H](CO)[C@@]12COC(=O)[C@@]13C[C@@H](CC[C@H]12)[C@@H](C)C3=O	> 100 µM	Non-Toxic
